Reference: patent publication US20110281762A1, “High throughput screening for anaerobic microorganisms” (priority 2010, published 2011)

Columns and labels:
[1] = test system: all six Bacteroides species; assay: Growth of six Bacteroides species on fructose-based glycans; format: cell-based
Text: (§1) In all six Bacteroides species, the HTCS is adjacent to a predicted fructokinase, a putative inner membrane monosaccharide importer, and GH32-family glycoside hydrolases. In each genome, except that of B. vulgatus, the syntenic regions also contain a susC/susD homologous pair. […] All Bacteroides species tested, except B. vulgatus, were able to grow efficiently using one of the long-chain fructans, inulin or levan. The inability of B. vulgatus to grow on long-chain fructans is consistent with the absence of a susC/susD-like pair within its locus. B. caccae, B. ovatus, B. fragilis and B. uniformis can utilize inulin with efficiency similar to their use of glucose. This contrasts with Bt inulin use, which is only observed after three days (FIG. 5). Bt was the only species tested able to use levan, which was particularly striking when considering the overall similarity in PUL structure between Bt, B. caccae, and B. ovatus.
(§2) Culturing bacteria. Bacteria were cultured in TYG and MM as described previously. The following bacteria were used: Bt (VPI-5482), B. caccae (ATCC-43185), B. ovatus (ATCC-8483), B. fragilis (NCTC-9343), B. uniformis (ATCC-8492), and B. vulgatus (ATCC-8482). Growth curves in MM were obtained using a Powerwave (Biotek) reading OD600 every 30 min from anaerobic cultures at 37° C.

[2] = biological target: periplasmic domain of BT1754 (BT1754-PD; residues 29-343) (Bacteroides thetaiotaomicron, UniProt Q8A6X1); assay: Isothermal calorimetry binding to the periplasmic domain of BT1754
Text: The periplasmic domain of the hybrid two-component system BT1754 binds to monomeric fructose. One of the key unanswered questions concerning the HTCS family, and many extracellular sensory systems, is the identity of the molecular triggers for signaling events. […] (FIG. 2B). […] As PBPs are known to bind small molecules such as sugars, we expressed the periplasmic domain of BT1754 (BT1754-PD; residues 29-343) in a recombinant form and tested for binding to a range of monosaccharides and fructan-derived oligosaccharides to see if direct interaction with a specific carbohydrate is the means of signal perception in BT1754.
Isothermal titration calorimetry. Measurements were carried out essentially as described previously, except that a Microcal VP-ITC machine was used, and proteins were dialyzed into 20 mM Tris-HCl, pH8.0. The assumption that n=1 for BT1762 binding to levan was based on the structure of the starch binding SusD.

[3] = test system: Bacteroides thetaiotaomicron (Bt); assay: Growth of Bt in minimal medium with a fructose-based carbohydrate as only carbon source; format: cell-based; conditions: substance as only carbon and energy source; for doubling time: Bt
Text: Bt upregulates its putative fructan PUL when grown on fructose-containing carbohydrates We inoculated minimal medium containing specific fructose-based carbohydrates as the only carbon and energy source with Bt to test if the bacterium is competent to grow on fructans. Bt grew on a broad range of fructose-based glycans, including free fructose, sucrose, levan (high MW fructose polymer with predominantly β2-6-linkages), and fructo-oligosaccharides (FOS; short-chain β2-1 polymers of 2-10 fructose units) (FIG. 1C). However, Bt grew poorly on inulin (β2-1 fructose polymer with an average degree of polymerization of ˜25), with growth only apparent three days after inoculation. Doubling times on simple monosaccharides and disaccharide were similar to one another.
as §2

Bt-ΔBT1754 = assay: Growth of isogenic mutant Bt-ΔBT1754 in minimal media; format: cell-based, Bacteroides thetaiotaomicron; conditions: fructose-based minimal media
Text: The hybrid two-component system BT1754 is required for efficient fructan utilization by Bt. We assessed the ability of an isogenic mutant of Bt lacking the BT1754 gene to grow in a panel of fructose-based minimal media (MM) to test if upregulation of the PUL was dependent upon the HTCS signaling sensor. An in-frame, unmarked deletion of BT1754 was constructed using a standard counter-selectable allele-exchange procedure. […] Complementation of this mutant was achieved by introducing the genomic fragment containing BT1754 and its 5′ intergenic upstream promoter region in trans.
as §2

Bt and B. vulgatus = assay: Dietary inulin in gnotobiotic mice bi-associated with Bt and B. vulgatus, relative fecal proportion by qPCR; format: in vivo, germ-free Swiss-Webster mice
Text: (§3) Two groups of 8-12-week old, germ-free mice were colonized with equivalent quantities (10^8 colony forming units, CFU) of Bt and B. caccae or Bt and B. vulgatus. Each mouse was maintained on a standard polysaccharide-rich diet for the first 7 days of colonization and then switched to a diet in which the sole polysaccharide was inulin (10% w/w) for an additional 14 days. Mice were individually housed throughout the experiment to ensure no cross inoculation could occur and bedding was changed every two days. Total bacterial colonization density was determined by assessing the CFUs in feces over 21 days. The change in each species' relative abundance before and after dietary inulin supplementation was assessed using species-specific primers in a quantitative PCR assay.
(§4) Bacterial colonization and density determination of germ-free mice. Germ-free Swiss-Webster mice were maintained in gnotobiotic isolators and fed an autoclaved standard diet (Purina LabDiet 5K67) or custom diet (Bio-Serv, http://bio-serv.com/), in accordance with A-PLAC, the Stanford IACUC. Mice were bi-associated using oral gavage (10^8 CFU of each bacterial species). Relative densities of bacteria were determined by qPCR using strain-specific primers.

B. ovatus = assay: Growth on long-chain fructan; format: cell-based; conditions: efficiency similar to use of glucose
Text: as §1, §2

B. uniformis = assay: Growth on long-chain fructan; format: cell-based; conditions: efficiency similar to use of glucose
Text: as §1, §2

B. fragilis = assay: Growth on long-chain fructan; format: cell-based; conditions: efficiency similar to use of glucose
Text: as §1, §2

B. caccae = assay: Growth on long-chain fructan; format: cell-based; conditions: efficiency similar to use of glucose
Text: as §1, §2

B. vulgatus = assay: Growth on long-chain fructan; format: cell-based
Text: as §1, with “Bt was the only species tested able to use levan, which was particularly striking when considering the overall similarity in PUL structure between Bt, B. caccae, and B. ovatus.” left out
Genomic content of Bacteroides species predicts changes in microbiota composition induced by an inulin-based diet. The differences in ability to utilize fructans between the Bacteroides species implies that the relative success of a species within a gut ecosystem may be determined, in part, by the abundance and type of fructan in the host diet. […] We constructed defined two-member communities of Bacteroides species within the intestines of gnotobiotic mice to test how model microbiotas respond in vivo to dietary inulin, which, unlike levan, is available in pure form in quantities sufficient to conduct such a study. […]

Bt and B. caccae = assay: Dietary inulin in gnotobiotic mice bi-associated with Bt and B. caccae, relative fecal proportion by qPCR; format: in vivo, germ-free Swiss-Webster mice
Text: as §3
In the previous experiment, inulin was the sole polysaccharide in the diet. We wondered whether we would observe the same inulin-induced increase in B. caccae relative to Bt if other polysaccharides were also present in the diet. To test this, gnotobiotic mice were co-colonized with Bt and B. caccae and maintained on the standard diet with inulin supplementation in the water (1% w/v). Over the 14 days the mice ingested an average of 117±6 mg of inulin daily via the water (compared to 355±7 mg/day with the inulin diet). Fecal samples were tested by qPCR over the course of the 21-day experiment for relative levels of Bt or B. caccae.
We decided to feed mice a custom diet deficient in all polysaccharides and supplement inulin in the water to determine whether a lower dose of inulin in the absence of other polysaccharides was sufficient to provide B. caccae a competitive advantage over Bt in vivo. Under this experimental paradigm the mice consumed an average of 97 mg of inulin per day. After. 14 days on inulin-water supplementation, the proportion of B. caccae increased by 26±8% (FIG. 6D). […] The wide range of polysaccharides present in the standard diet allows Bt to compete effectively with B. caccae even in the presence of inulin.
as §4

[4] = after two weeks on inulin diet (day 21), n=7 mice

Sequence of periplasmic domain of BT1754 (BT1754-PD; residues 29-343) (Q8A6X1 entry or part of it, change not shown): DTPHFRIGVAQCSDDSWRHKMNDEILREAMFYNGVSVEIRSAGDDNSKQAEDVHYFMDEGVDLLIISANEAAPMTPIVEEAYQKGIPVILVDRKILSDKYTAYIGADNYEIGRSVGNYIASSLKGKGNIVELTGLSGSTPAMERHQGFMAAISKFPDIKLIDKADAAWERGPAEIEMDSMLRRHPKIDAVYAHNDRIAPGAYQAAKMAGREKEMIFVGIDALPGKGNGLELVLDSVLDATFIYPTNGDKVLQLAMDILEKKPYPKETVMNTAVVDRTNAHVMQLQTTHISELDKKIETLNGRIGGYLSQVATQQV

Row | Compound | growth [1] | growth of Bt [3] | growth of Bt-ΔBT1754 (Bt-ΔBT1754) | doubling time [3] | other results
1 | O=C(CO)[C@@H](O)[C@H](O)[C@H](O)CO [fructose] | competent for growth | grew on | retarded growth |  | Kd [2]: ~2 µM
2 | O=C[C@H](O)[C@H](O)[C@H](O)CO [ribose] |  |  |  |  | interaction with BT1754-PD ([2]; isothermal calorimetry): does not interact
3 | OC[C@H]1O[C@@](CO)(O[C@H]2O[C@H](CO)[C@@H](O)[C@H](O)[C@H]2O)[C@@H](O)[C@@H]1O [sucrose] | competent for growth | grew on | retarded growth |  | 
4 | fructo-oligosaccharides [FOS] | competent for growth | grew on | failed to grow | 5.6 h | 
5 | inulin |  | grew poorly | failed to grow | 96.4 h | change in community composition (Bt and B. vulgatus; after 6 days on inulin-based diet): did not exhibit any significant trend; Bt abundance (Bt and B. vulgatus; day 21, inulin enriched diet, 74±3% on day 6, p=0.1, n=3 mice): 84±5%; inulin utilization (B. ovatus): can utilize; inulin utilization (B. uniformis): can utilize; inulin utilization (B. fragilis): can utilize; inulin utilization (B. caccae): can utilize; inulin utilization (B. vulgatus): unable to utilize; B. caccae proportion of community (Bt and B. caccae; [4]): 51±6%; Bt proportion of community (Bt and B. caccae; [4]): approximately 49±6%; increase in proportion of B. caccae (Bt and B. caccae; custom diet deficient in all polysaccharides, inulin in the water, 14 days): 26±8%; increase in proportion of B. caccae (Bt and B. caccae; inulin-only diet experiment, day 6 to day 21): 36±7%; B. caccae proportion of community (Bt and B. caccae; six days after change to inulin-based diet (10% w/w)): 20±4%; Bt proportion of community (Bt and B. caccae; six days after change to inulin-based diet (10% w/w, sole polysaccharide), 87±3% before switch): 80±4%; change in relative colonization of Bt and B. caccae versus controls (Bt and B. caccae; standard diet with inulin in the water (1% w/v), 14 days): no statistical difference
6 | levan |  | grew on | failed to grow | 2.7 h | 
